# Data as given in PubChem BioAssay AID180 (DTP/NCI, 2004).
# Where “and” joins values, the source holds several entries; their conditions need not be identical. Identical values can stand only once.
# Test system: BDF1 mice, Adenocarcinoma 755 s.c., tumor weight T/C
# Assay: NCI In Vivo Anticancer Drug Screen. Data for tumor model Adenocarcinoma 755 (subcutaneous) in B6D2F1 (BDF1) mice
# Details: endpoint: mean tumor weight, higher = larger tumour
# In short: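 Readout: T/C, i.e. treated-group measurement over vehicle-control measurement. Endpoint is survival or tumor size in tumor-bearing mice given compound.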
# [1] = dose: 3.1 mg/kg/injection, schedule: Q01DX011 (ip), vehicle: methylcellulose (MC)
# [2] = dose: 12.5 mg/kg/injection, schedule: Q01DX011 (ip), vehicle: methylcellulose (MC)
# [3] = dose: 25.0 mg/kg/injection, schedule: Q01DX011 (ip), vehicle: methylcellulose (MC)
# [4] = dose: 50.0 mg/kg/injection, schedule: Q01DX011 (ip), vehicle: methylcellulose (MC)
# [5] = dose: 100.0 mg/kg/injection, schedule: Q01DX011 (ip), vehicle: methylcellulose (MC)
# [6] = dose: 25.0 mg/kg/injection, schedule: Q01DX011 (ip), vehicle: carboxymethylcellulose (CMC)
# [7] = dose: 20.0 mg/kg/injection, schedule: Q01DX011 (ip), vehicle: methylcellulose (MC)
# [8] = dose: 225.0 mg/kg/injection, schedule: Q01DX011 (ip), vehicle: methylcellulose (MC)
smiles,measurement,setting,value
CC(=O)OCC(=O)[C@@]1(O)CC[C@H]2[C@@H]3CCC4=CC(=O)C=C[C@]4(C)[C@@]3(F)[C@@H](O)C[C@@]21C,T/C,"dose: 0.07 mg/kg/injection, schedule: Q01DX011 (sc), vehicle: steriod suspending solution",90 % of control
same,T/C,"dose: 0.14 mg/kg/injection, schedule: Q01DX011 (sc), vehicle: steriod suspending solution",77 % of control
same,T/C,"dose: 0.28 mg/kg/injection, schedule: Q01DX011 (sc), vehicle: steriod suspending solution",41 % of control
same,T/C,"dose: 1.12 mg/kg/injection, schedule: Q01DX011 (sc), vehicle: steriod suspending solution",54 % of control
same,T/C,"dose: 2.25 mg/kg/injection, schedule: Q01DX011 (sc), vehicle: steriod suspending solution",38 % of control
same,T/C,"dose: 4.5 mg/kg/injection, schedule: Q01DX011 (sc), vehicle: steriod suspending solution",26 % of control and 38 % of control
same,T/C,"dose: 9.0 mg/kg/injection, schedule: Q01DX011 (sc), vehicle: steriod suspending solution",21 % of control
same,T/C,"dose: 18.0 mg/kg/injection, schedule: Q01DX011 (sc), vehicle: steriod suspending solution",17 % of control
same,T/C,"dose: 24.0 mg/kg/injection, schedule: Q01DX011 (sc), vehicle: steriod suspending solution",9 % of control and 23 % of control
same,T/C,"dose: 25.0 mg/kg/injection, schedule: Q01DX011 (sc), vehicle: steriod suspending solution",23 % of control and 28 % of control
same,T/C,"dose: 36.0 mg/kg/injection, schedule: Q01DX011 (sc), vehicle: steriod suspending solution",11 % of control
same,T/C,"dose: 50.0 mg/kg/injection, schedule: Q01DX011 (sc), vehicle: steriod suspending solution",13 % of control and 24 % of control
same,T/C,"dose: 100.0 mg/kg/injection, schedule: Q01DX011 (sc), vehicle: steriod suspending solution",9 % of control and 11 % of control
CC(=O)N(C)C,T/C,"dose: 125.0 mg/kg/injection, schedule: Q#A X022 (ip), vehicle: saline",84 % of control
same,T/C,"dose: 250.0 mg/kg/injection, schedule: Q01DX011 (ip), vehicle: saline",93 % of control and 105 % of control
same,T/C,"dose: 250.0 mg/kg/injection, schedule: Q01DX011 (sc), vehicle: saline",100 % of control
same,T/C,"dose: 250.0 mg/kg/injection, schedule: Q03DX004 (ip), vehicle: saline",64 % of control
same,T/C,"dose: 500.0 mg/kg/injection, schedule: Q01DX006 (iv), vehicle: saline",99 % of control
same,T/C,"dose: 500.0 mg/kg/injection, schedule: Q01DX011 (im), vehicle: saline",155 % of control
same,T/C,"dose: 500.0 mg/kg/injection, schedule: Q01DX011 (ip), vehicle: saline",98 % of control and 77 % of control
same,T/C,"dose: 500.0 mg/kg/injection, schedule: Q03DX004 (ip), vehicle: saline",79 % of control
same,T/C,"dose: 500.0 mg/kg/injection, schedule: Q#A X022 (ip), vehicle: saline",57 % of control
same,T/C,"dose: 750.0 mg/kg/injection, schedule: Q01DX011 (ip), vehicle: other",28 % of control
same,T/C,"dose: 750.0 mg/kg/injection, schedule: Q03DX004 (ip), vehicle: saline",84 % of control
same,T/C,"dose: 1000.0 mg/kg/injection, schedule: Q01DX001 (ip), vehicle: saline",72 % of control and 84 % of control
same,T/C,"dose: 1000.0 mg/kg/injection, schedule: Q01DX006 (iv), vehicle: saline",80 % of control
same,T/C,"dose: 1000.0 mg/kg/injection, schedule: Q01DX011 (im), vehicle: saline",78 % of control
same,T/C,"dose: 1000.0 mg/kg/injection, schedule: Q01DX011 (ip), vehicle: other",16 % of control
same,T/C,"dose: 1000.0 mg/kg/injection, schedule: Q01DX011 (sc), vehicle: saline",66 % of control and 71 % of control
same,T/C,"dose: 1000.0 mg/kg/injection, schedule: Q03DX004 (ip), vehicle: saline",91 % of control
same,T/C,"dose: 1000.0 mg/kg/injection, schedule: Q#A X022 (ip), vehicle: saline",29 % of control
same,T/C,"dose: 1250.0 mg/kg/injection, schedule: Q01DX011 (ip), vehicle: other",5 % of control
same,T/C,"dose: 1500.0 mg/kg/injection, schedule: Q03DX004 (ip), vehicle: saline",81 % of control
same,T/C,"dose: 2000.0 mg/kg/injection, schedule: Q01DX006 (iv), vehicle: saline",67 % of control
same,T/C,"dose: 2000.0 mg/kg/injection, schedule: Q01DX011 (im), vehicle: saline",22 % of control
same,T/C,"dose: 2000.0 mg/kg/injection, schedule: Q01DX011 (ip), vehicle: saline",16 % of control and 17 % of control
same,T/C,"dose: 2000.0 mg/kg/injection, schedule: Q01DX011 (oral), vehicle: saline",48 % of control and 57 % of control
same,T/C,"dose: 2000.0 mg/kg/injection, schedule: Q01DX011 (sc), vehicle: saline",64 % of control
same,T/C,"dose: 2000.0 mg/kg/injection, schedule: Q03DX004 (ip), vehicle: saline",69 % of control
same,T/C,"dose: 3000.0 mg/kg/injection, schedule: Q03DX004 (ip), vehicle: saline",36 % of control
same,T/C,"dose: 4000.0 mg/kg/injection, schedule: Q01DX011 (oral), vehicle: saline",11 % of control
CCCCCCCCSc1ncnc2c1ncn2CC,T/C,"dose: 150.0 mg/kg/injection, schedule: Q01DX011 (ip), vehicle: saline",58 % of control
same,T/C,"dose: 300.0 mg/kg/injection, schedule: Q01DX011 (ip), vehicle: saline",17 % of control
Nc1nc(SCC(=O)c2ccccc2)c2[nH]cnc2n1,T/C,"dose: 0.46 mg/kg/injection, schedule: Q01DX011 (ip), vehicle: saline",95 % of control
same,T/C,"dose: 0.93 mg/kg/injection, schedule: Q01DX011 (ip), vehicle: saline",91 % of control
same,T/C,"dose: 1.87 mg/kg/injection, schedule: Q01DX011 (ip), vehicle: saline",75 % of control
same,T/C,"dose: 15.0 mg/kg/injection, schedule: Q01DX011 (ip), vehicle: saline",6 % of control
same,T/C,"dose: 30.0 mg/kg/injection, schedule: Q01DX011 (ip), vehicle: saline",4 % of control and 6 % of control
same,T/C,"dose: 60.0 mg/kg/injection, schedule: Q01DX011 (ip), vehicle: saline",4 % of control and 12 % of control
same,T/C,"dose: 120.0 mg/kg/injection, schedule: Q01DX011 (ip), vehicle: saline",2 % of control
same,T/C,"dose: 240.0 mg/kg/injection, schedule: Q01DX011 (ip), vehicle: saline",2 % of control
NC(=O)OCCI,T/C,[1],47 % of control
same,T/C,[2],52 % of control and 61 % of control
same,T/C,[3],31 % of control and 47 % of control
same,T/C,[4],7 % of control
same,T/C,[5],1 % of control
CNc1nc(N)nc(Nc2ccc(I)cc2)c1N=O,T/C,"dose: 12.5 mg/kg/injection, schedule: Q01DX011 (ip), vehicle: carboxymethylcellulose (CMC)",52 % of control
same,T/C,[6],39 % of control and 52 % of control
same,T/C,[4],31 % of control
same,T/C,"dose: 100.0 mg/kg/injection, schedule: Q01DX011 (ip), vehicle: carboxymethylcellulose (CMC)",20 % of control and 36 % of control and 38 % of control
same,T/C,[5],46 % of control
same,T/C,"dose: 200.0 mg/kg/injection, schedule: Q01DX011 (ip), vehicle: carboxymethylcellulose (CMC)",28 % of control and 30 % of control
same,T/C,"dose: 200.0 mg/kg/injection, schedule: Q01DX011 (ip), vehicle: methylcellulose (MC)",25 % of control
same,T/C,"dose: 400.0 mg/kg/injection, schedule: Q01DX011 (ip), vehicle: methylcellulose (MC)",12 % of control
S=P(Oc1ccccc1)(N1CC1)N1CC1,T/C,"dose: 55.0 mg/kg/injection, schedule: Q01DX011 (ip), vehicle: methylcellulose (MC)",22 % of control and 42 % of control and 44 % of control
same,T/C,"dose: 220.0 mg/kg/injection, schedule: Q01DX011 (ip), vehicle: methylcellulose (MC)",20 % of control
CC(C)CN(C)/N=N/c1nc[nH]c1C(N)=O,T/C,[6],40 % of control
same,T/C,"dose: 37.5 mg/kg/injection, schedule: Q01DX011 (ip), vehicle: carboxymethylcellulose (CMC)",22 % of control
Clc1ccc(CSc2ncnc3c2ncn3C2CCCCO2)cc1 (stereo not given),T/C,[7],84 % of control
same,T/C,"dose: 65.0 mg/kg/injection, schedule: Q01DX011 (ip), vehicle: methylcellulose (MC)",31 % of control
O=C(CCl)Nc1ncnc2nc[nH]c12,T/C,[7],84 % of control
CCCCn1cnc2c(SCc3cccc(F)c3)nc(N)nc21,T/C,[1],50 % of control
same,T/C,"dose: 6.25 mg/kg/injection, schedule: Q01DX011 (ip), vehicle: methylcellulose (MC)",61 % of control
same,T/C,[2],23 % of control
same,T/C,[3],1 % of control and 8 % of control
Cn1c(=O)c2[nH]c(N/N=C/c3ccccc3)nc2n(C)c1=O,T/C,[7],56 % of control
same,T/C,[3],45 % of control and 53 % of control
same,T/C,"dose: 80.0 mg/kg/injection, schedule: Q01DX011 (ip), vehicle: methylcellulose (MC)",73 % of control
same,T/C,[8],41 % of control and 46 % of control
CS(=O)(=O)OCCC(=O)N1CN(C(=O)CCOS(C)(=O)=O)CN(C(=O)CCOS(C)(=O)=O)C1,T/C,"dose: 28.0 mg/kg/injection, schedule: Q01DX011 (ip), vehicle: methylcellulose (MC)",115 % of control
same,T/C,"dose: 57.0 mg/kg/injection, schedule: Q01DX011 (ip), vehicle: methylcellulose (MC)",110 % of control
same,T/C,[8],81 % of control
Cn1c(=O)c2c(nc(COCc3nc4c(c(=O)n(C)c(=O)n4C)n3C)n2C)n(C)c1=O,T/C,[3],60 % of control
same,T/C,"dose: 75.0 mg/kg/injection, schedule: Q01DX011 (ip), vehicle: methylcellulose (MC)",82 % of control
same,T/C,[8],33 % of control
